The text below walks through data of PubChem BioAssay AID1745844 (Carcinogenic Potency Database (CPDB), 2022).

The structures appear in SMILES notation. “And” between values parts separate entries of the source, which are not always exact repeats. Equal values may be shown once. The source made the active and inactive calls. No rule for the calls is given here.

The test system of the data set is rodent lifetime carcinogenesis bioassay, tumor incidence TD50. The experiment in a line: chronic cancer bioassays in animals – CPDB, compiled studies (AID 1745844).

What is called TD50 is the 50% point of the dose-response relation for the toxic effect studied. In the case of `CC(CN1CC(=O)NC(=O)C1)N1CC(=O)NC(=O)C1` (stereo not given), the TD50 by setting is: (mouse, strain B6C3F1, females, i.p., site: all sites, lesion: leukemia + lymphoma, histiocytic type + lymphoma, dosed 52 weeks, study length 86 weeks) 23.7 mg/kg/day; (mouse, strain B6C3F1, females, i.p., site: all sites, lesion: leukemia + lymphoma, dosed 52 weeks, study length 86 weeks) 23.7 mg/kg/day and 25.9 mg/kg/day; (mouse, strain B6C3F1, females, i.p., site: all sites, lesion: lymphoma, histiocytic type, dosed 52 weeks, study length 86 weeks) 53.7 mg/kg/day; (mouse, strain B6C3F1, females, i.p., site: any site (literature study), lesion: several types, types named in the paper, dosed 52 weeks, study length 86 weeks) 16.8 mg/kg/day; (mouse, strain B6C3F1, males, i.p., site: any site (literature study), lesion: several types, types named in the paper, dosed 52 weeks, study length 86 weeks) 262 mg/kg/day (inactive); (mouse, strain B6C3F1, males, i.p., site: lung, lesion: alveolar/bronchiolar adenoma + alveolar/bronchiolar carcinoma, dosed 52 weeks, study length 86 weeks) 212 mg/kg/day. In addition, the TD50 by setting is: (rat, strain Sprague-Dawley, females, i.p., site: any site (literature study), lesion: several types, types named in the paper, dosed 52 weeks, study length 81 weeks) 6.48 mg/kg/day; (rat, strain Sprague-Dawley, females, i.p., site: uterus, lesion: adenocarcinoma, NOS, dosed 52 weeks, study length 79 weeks) 10.7 mg/kg/day; (rat, strain Sprague-Dawley, females, i.p., site: uterus, lesion: adenocarcinoma, NOS, dosed 52 weeks, study length 81 weeks) 11.3 mg/kg/day; (rat, strain Sprague-Dawley, males, i.p., site: any site (literature study), lesion: several types, types named in the paper, dosed 52 weeks, study length 81 weeks) 9.55 mg/kg/day (inactive); (rat, strain Sprague-Dawley, males, i.p., site: liver, lesion: hepatocellular adenoma + hepatocellular carcinoma + neoplastic nodule, dosed 52 weeks, study length 81 weeks) 105 mg/kg/day.

On to `CC1CN(/N=C/c2ccc([N+](=O)[O-])o2)C(=O)N1` (stereo not given), for which the TD50 was 5.59 mg/kg/day (rat, strain Sprague-Dawley, females, in feed, site: any site (literature study), lesion: several types, types named in the paper, dosed 46 weeks, study length 66 weeks) and 5.34 mg/kg/day (rat, strain Sprague-Dawley, females, in feed, site: mammary gland, lesion: adenocarcinoma, dosed 46 weeks, study length 66 weeks).

In the case of `O=C(O)c1cc(=O)[nH]c(=O)[nH]1`, the TD50 runs as follows: (rat, strain Fischer 344, males, in feed, site: Zymbal's gland, lesion: one or several types, types not named, dosed 104 weeks, study length 104 weeks) 2600 mg/kg/day; (rat, strain Fischer 344, males, in feed, site: all sites, lesion: leukemia, dosed 104 weeks, study length 104 weeks) 1690 mg/kg/day; (rat, strain Fischer 344, males, in feed, site: liver, lesion: hepatocellular adenoma, dosed 52 weeks, study length 52 weeks) 925 mg/kg/day; (rat, strain Fischer 344, males, in feed, site: liver, lesion: hepatocellular adenoma, dosed 104 weeks, study length 104 weeks) 395 mg/kg/day.

Regarding `CCC1C(=O)OCC1Cc1cncn1C` (stereo not given), the TD50 reads like this: (rat, strain Sprague-Dawley, females, i.p., site: any site (literature study), lesion: malignant tumor, dosed 104 weeks, study length 104 weeks) 98.4 mg/kg/day (inactive); (rat, strain Sprague-Dawley, males, i.p., site: any site (literature study), lesion: malignant tumor, dosed 104 weeks, study length 104 weeks) 1750 mg/kg/day (inactive).

Turning to `CCN(Cc1cccc(S(=O)(=O)O)c1)c1ccc(C(=C2C=CC(=[N+](CC)Cc3cccc(S(=O)(=O)O)c3)C=C2)c2ccccc2S(=O)(=O)[O-])cc1`, the carcinogen call by setting is: (mouse, strain Charles River CD1, females, in feed, site: liver, lesion: hemangioma, dosed 104 weeks, study length 104 weeks) “negative (inactive)”; (mouse, strain Charles River CD1, females, in feed, site: lung, lesion: alveolar-cell adenoma, dosed 104 weeks, study length 104 weeks) “negative (inactive)”; (mouse, strain Charles River CD1, females, in feed, site: lung, lesion: bronchiolar adenocarcinoma, dosed 104 weeks, study length 104 weeks) “negative (inactive)”; (mouse, strain Charles River CD1, males, in feed, site: liver, lesion: hemangiosarcoma, dosed 104 weeks, study length 104 weeks) “negative (inactive)”; (mouse, strain Charles River CD1, males, in feed, site: liver, lesion: hepatocellular carcinoma, dosed 104 weeks, study length 104 weeks) “negative (inactive)”; (mouse, strain Charles River CD1, males, in feed, site: lung, lesion: alveogenic adenocarcinoma, dosed 104 weeks, study length 104 weeks) “negative (inactive)”. Further, the carcinogen call is “negative (inactive)” (mouse, strain Charles River CD1, males, in feed, site: lung, lesion: alveolar-cell adenoma, dosed 104 weeks, study length 104 weeks); “negative (inactive)” (mouse, strain Charles River CD1, males, in feed, site: lung, lesion: alveolar-cell carcinoma, dosed 104 weeks, study length 104 weeks); “negative (inactive)” (rat, strain Osborne-Mendel, both sexes, in feed, site: any site (literature study), lesion: several types, types named in the paper, dosed 104 weeks, study length 104 weeks). Moreover, the TD50 runs as follows: (mouse, strain Charles River CD1, females, in feed, site: lung, lesion: adenocarcinoma, dosed 104 weeks, study length 104 weeks) 372000 mg/kg/day (inactive); (mouse, strain Charles River CD1, females, in feed, site: lung, lesion: alveolar-cell carcinoma, dosed 104 weeks, study length 104 weeks) 607000 mg/kg/day (inactive); (mouse, strain Charles River CD1, females, in feed, site: lung, lesion: bronchiolar adenoma, dosed 104 weeks, study length 104 weeks) 856000 mg/kg/day (inactive); (mouse, strain Charles River CD1, males, in feed, site: lung, lesion: adenocarcinoma, dosed 104 weeks, study length 104 weeks) 293000 mg/kg/day (inactive); (mouse, strain Charles River CD1, males, in feed, site: lung, lesion: bronchiolar adenocarcinoma, dosed 104 weeks, study length 104 weeks) 343000 mg/kg/day (inactive); (mouse, strain Charles River CD1, males, in feed, site: lung, lesion: bronchiolar adenoma, dosed 104 weeks, study length 104 weeks) 91100 mg/kg/day (inactive). For the setting “rat, strain Osborne-Mendel, both sexes, in feed, site: liver, lesion: hepatoma, dosed 104 weeks, study length 104 weeks”, this compound came in with a TD50 of 62100 mg/kg/day.

On to `O=S(O)O`, for which the TD50 (mouse, strain ICR/Jcl, females, in drinking water, site: liver, lesion: hemangioendothelial sarcoma, dosed 104 weeks, study length 104 weeks) was 204000 mg/kg/day (inactive); the TD50 (mouse, strain ICR/Jcl, females, in drinking water, site: lung, lesion: adenocarcinoma, dosed 104 weeks, study length 104 weeks) was 100000 mg/kg/day (inactive); the TD50 (mouse, strain ICR/Jcl, females, in drinking water, site: lung, lesion: adenoma, dosed 104 weeks, study length 104 weeks) is 33600 mg/kg/day (inactive); the TD50 (mouse, strain ICR/Jcl, males, in drinking water, site: lung, lesion: adenocarcinoma, dosed 104 weeks, study length 104 weeks) was 84800 mg/kg/day (inactive); the TD50 (mouse, strain ICR/Jcl, males, in drinking water, site: lung, lesion: adenoma, dosed 104 weeks, study length 104 weeks) was 84800 mg/kg/day (inactive). Also, the carcinogen call (mouse, strain ICR/Jcl, males, in drinking water, site: liver, lesion: one or several types, types not named, dosed 104 weeks, study length 104 weeks) is “negative (inactive)”.

Turning to `CC1CC(C)(C)CC(OOC(C)(C)C)(OOC(C)(C)C)C1` (stereo not given), the TD50 is, setting by setting: (mouse, strain B6C3F1, females, in feed, site: any site (literature study), lesion: malignant tumor, dosed 78 weeks, study length 83 weeks) 9310 mg/kg/day (inactive); (mouse, strain B6C3F1, females, in feed, site: any site (literature study), lesion: one or several types, types not named, dosed 78 weeks, study length 83 weeks) 4230 mg/kg/day (inactive); (mouse, strain B6C3F1, females, in feed, site: lung, lesion: alveolar/bronchiolar carcinoma, dosed 78 weeks, study length 83 weeks) 19900 mg/kg/day (inactive); (mouse, strain B6C3F1, males, in feed, site: any site (literature study), lesion: one or several types, types not named, dosed 78 weeks, study length 83 weeks) 4980 mg/kg/day (inactive); (mouse, strain B6C3F1, males, in feed, site: liver, lesion: hepatocellular adenoma, dosed 78 weeks, study length 83 weeks) 1490 mg/kg/day (inactive); (mouse, strain B6C3F1, males, in feed, site: lung, lesion: alveolar/bronchiolar adenoma, dosed 78 weeks, study length 83 weeks) 7.6e+09 mg/kg/day (inactive). The carcinogen call is “negative (inactive)” (mouse, strain B6C3F1, females, in feed, site: liver, lesion: one or several types, types not named, dosed 78 weeks, study length 83 weeks); “negative (inactive)” (mouse, strain B6C3F1, females, in feed, site: lung, lesion: alveolar/bronchiolar adenoma, dosed 78 weeks, study length 83 weeks); “negative (inactive)” (mouse, strain B6C3F1, males, in feed, site: any site (literature study), lesion: malignant tumor, dosed 78 weeks, study length 83 weeks); “negative (inactive)” (mouse, strain B6C3F1, males, in feed, site: liver, lesion: hepatocellular carcinoma, dosed 78 weeks, study length 83 weeks); “negative (inactive)” (mouse, strain B6C3F1, males, in feed, site: lung, lesion: alveolar/bronchiolar carcinoma, dosed 78 weeks, study length 83 weeks).

For the compound `NNCCO`, the TD50 is 148 mg/kg/day (inactive) (hamster, strain Syrian Golden, females, in drinking water, site: liver, lesion: hepatoma, dosed 84 weeks, study length 84 weeks); 84.4 mg/kg/day (inactive) (hamster, strain Syrian Golden, males, in drinking water, site: liver, lesion: hepatoma, dosed 84 weeks, study length 84 weeks); 5.34 mg/kg/day (mouse, strain B6AKF1, females, oral dosing, site: any site (literature study), lesion: several types, types named in the paper, dosed 78 weeks, study length 78 weeks); 0.404 mg/kg/day (mouse, strain B6AKF1, males, oral dosing, site: any site (literature study), lesion: several types, types named in the paper, dosed 78 weeks, study length 78 weeks); 0.314 mg/kg/day (mouse, strain B6AKF1, males, oral dosing, site: liver, lesion: hepatoma, dosed 78 weeks, study length 78 weeks); 4.77 mg/kg/day (mouse, strain B6C3F1, females, oral dosing, site: any site (literature study), lesion: several types, types named in the paper, dosed 78 weeks, study length 78 weeks). For the same compound, the TD50 (mouse, strain B6C3F1, females, oral dosing, site: liver, lesion: hepatoma, dosed 78 weeks, study length 78 weeks) was determined as 4.77 mg/kg/day; the TD50 (mouse, strain B6C3F1, females, oral dosing, site: lung, lesion: adenoma, dosed 78 weeks, study length 78 weeks) is 4.77 mg/kg/day; the TD50 (mouse, strain B6C3F1, males, oral dosing, site: any site (literature study), lesion: several types, types named in the paper, dosed 78 weeks, study length 78 weeks) was 0.713 mg/kg/day; the TD50 (mouse, strain B6C3F1, males, oral dosing, site: liver, lesion: hepatoma, dosed 78 weeks, study length 78 weeks) is 0.541 mg/kg/day. Moreover, the carcinogen call is, setting by setting: (mouse, strain Swiss, females, in drinking water, site: lung, lesion: one or several types, types not named, dosed 75 weeks, study length 75 weeks) “negative (inactive)”; (mouse, strain Swiss, males, in drinking water, site: liver, lesion: several types, types named in the paper, dosed 75 weeks, study length 75 weeks) “negative (inactive)”; (mouse, strain Swiss, males, in drinking water, site: lung, lesion: one or several types, types not named, dosed 75 weeks, study length 75 weeks) “negative (inactive)”.
